Values of other authors in US12521383B2 (Slayback Pharma LLC, priority 2022, dated 2026).

Conditions: in water, pH independent solubility profile

- aqueous solubility: 40 to 50 µg/mL
SMILES: COc1ccc(-n2nc(C(N)=O)c3c2C(=O)N(c2ccc(N4CCCCC4=O)cc2)CC3)cc1 [apixaban, 1-(4-methoxyphenyl)-7-oxo-6-[4-(2-oxopiperidin-1-yl)phenyl]-4,5-dihydropyrazolo [3,4-c] pyridine-3-carboxamide]
